MIC data for four compounds are collected here from patent publication US7678791B2, “Nitroheteroaryl-containing rifamycin derivatives” (Cumbre IP Ventures, L.P., priority 2006, dated 2010).

Each structure is given as a SMILES string. Values after ≈ are worked out from the molar mass of the structure shown. Where two headings read alike, the source gives them in different places.

Holding throughout (assay type): cell-based
Assay [1] has as its system Haemophilus influenzae ATCC 10211. As to the kind of experiment: MIC by microbroth dilution, H. influenzae. The source says:
(§1) Methods for dilution antimicrobial susceptibility tests for bacteria that grow aerobically, 5th ed. M7-A5. National Committee for Clinical Laboratory Standards, Wayne, Pa.).
Background: In broth dilution the organism is exposed to a series of concentrations in liquid medium.

In assay [2] the test system is Clostridium difficile CB-1620. The experiment in a line: MIC, C. difficile. Particulars: Clostridioides difficile, CB1620.
For assay [3], the system named is Escherichia coli ATCC 25922. As to the kind of experiment: MIC by microbroth dilution, E. coli.
Description: as §1

Assay [4] relates to Mycobacterium tuberculosis H37Rv. The experiment in a line: MIC, M. tuberculosis.
For assay [5], the system named is Helicobacter pylori ATCC 700392. As to the kind of experiment: MIC by agar dilution, H. pylori.
Description: as §1

In assay [6] the test system is Helicobacter pylori CB1572 (Rif-resistant, rpoB L525I, D530N). The experiment in a line: microbe, parasite or virus in culture. To be noted: read-out: MIC H. pylori CB1572 (Rif-resistant).
Description: as §1

Assay [7] concerns Bacteroides fragilis CB-1621. As to the kind of experiment: MIC, B. fragilis. To be noted: CB1621.
Assay [8] concerns Staphylococcus aureus ATCC 29213. As to the kind of experiment: MIC by microbroth dilution, S. aureus.
Description: as §1

[9] abbreviates: ATCC25922, read-out: MIC E. coli ATCC# 25922.
Where [10] appears, read: ATCC700392, read-out: MIC H. pylori ATCC# 700392.
The mark [11] stands for this setting: ATCC29213, read-out: MIC S. aureus ATCC# 29213.

Turning to `CO[C@H]1/C=C/O[C@@]2(C)Oc3c(C)c(O)c4c(c3C2=O)C2=NC3(CCN(CCn5c([N+](=O)[O-])cnc5C)CC3)NC2=C(NC(=O)/C(C)=C\C=C\[C@H](C)[C@H](O)[C@@H](C)[C@@H](O)[C@@H](C)[C@H](OC(C)=O)[C@@H]1C)C4=O` [Example 1, 4-Deoxy-3,4-[2-spiro-[1-[2-(2-methyl-5-nitro-imidazol-1-yl)ethyl]-piperidin-4-yl]]-(1H)-imidazo-(2,5-dihydro)rifamycin S], the MIC is 1 µg/mL (≈ 1.06 µM) in assay [1] (ATCC10211, read-out: MIC H. influenzae ATCC# 10211); 0.00025 µg/mL (≈ 0.000265 µM) in assay [2]; 16 µg/mL (≈ 16.9 µM) in assay [3] (setting [9]); 0.016 µg/mL (≈ 0.0169 µM) in assay [4]; not above 0.03 µg/mL in assay [5] (setting [10]); 0.5 µg/mL (≈ 0.53 µM) in assay [6]. Moreover, the MIC in assay [7] and in assay [8] (setting [11]) was 0.03 µg/mL (≈ 0.0318 µM) in each case.

Regarding `CO[C@H]1/C=C/O[C@@]2(C)Oc3c(C)c(O)c4c(O)c(c(/C=N/N5CCN(CCn6c([N+](=O)[O-])cnc6C)CC5)c(O)c4c3C2=O)NC(=O)/C(C)=C\C=C\[C@H](C)[C@H](O)[C@@H](C)[C@@H](O)[C@@H](C)[C@H](OC(C)=O)[C@@H]1C` [Example 3, 3-[[[4-[2-(2-methyl-5-nitro-imidazol-1-yl)ethyl]-1-piperazinyl]imino]methyl]rifamycin SV], the MIC in assay [5] (setting [10]) came to 0.5 µg/mL (≈ 0.52 µM); in assay [6], 2 µg/mL (≈ 2.08 µM); in assay [8] (setting [11]), 0.03 µg/mL (≈ 0.0312 µM).

For `CO[C@H]1/C=C/O[C@@]2(C)Oc3c(C)c(O)c4c(=O)c(c5oc6cc(N7CCN(CCn8c([N+](=O)[O-])cnc8C)CC7)cc(O)c6nc-5c4c3C2=O)NC(=O)/C(C)=C\C=C\[C@H](C)[C@H](O)[C@@H](C)[C@@H](O)[C@@H](C)[C@H](OC(C)=O)[C@@H]1C` [Example 4, 3′-Hydroxy-5′-[4-[2-(2-methyl-5-nitro-imidazol-1-yl)ethyl]-1-piperazinyl]benzoxazinorifamycin], the MIC in assay [3] (setting [9]) is more than 8 µg/mL; in assay [5] (setting [10]), not above 0.03 µg/mL; in assay [6], 1 µg/mL (≈ 0.963 µM); in assay [8] (setting [11]), less than 0.004 µg/mL.

On to `CO[C@H]1/C=C/O[C@@]2(C)Oc3c(C)c(O)c4c(O)c(c(/C=N/N5CCN(C)CC5)c(O)c4c3C2=O)NC(=O)/C(C)=C\C=C\[C@H](C)[C@H](O)[C@@H](C)[C@@H](O)[C@@H](C)[C@H](OC(C)=O)[C@@H]1C` [rifampin, reference compound], for which the MIC in assay [1] (ATCC10211, microbroth dilution, read-out: MIC H. influenzae ATCC# 10211) was 0.24 µg/mL (≈ 0.292 µM); in assay [2], 0.001 µg/mL (≈ 0.00122 µM); in assay [3] (ATCC25922, microbroth dilution, read-out: MIC E. coli ATCC# 25922), 8 µg/mL (≈ 9.72 µM); in assay [5] (ATCC700392, agar dilution, read-out: MIC H. pylori ATCC# 700392), 0.12 µg/mL (≈ 0.146 µM); in assay [6], more than 32 µg/mL; in assay [7], 0.06 µg/mL (≈ 0.0729 µM). The MIC in assay [8] (ATCC29213, microbroth dilution, read-out: MIC S. aureus ATCC# 29213) turned out to be 0.008 µg/mL (≈ 0.00972 µM).
